From ChEMBL document CHEMBL2086282, “2-Substituted 4,5-dihydrothiazole-4-carboxylic acids are novel inhibitors of metallo-β-lactamases” (Bioorg Med Chem Lett, 2012)

Tests used:
Beta-lactamase II [1] = biological target: T1, Beta-lactamase II (Bacillus anthracis, UniProt Q93T40)
T1 sequence (Q93T40 whole entry): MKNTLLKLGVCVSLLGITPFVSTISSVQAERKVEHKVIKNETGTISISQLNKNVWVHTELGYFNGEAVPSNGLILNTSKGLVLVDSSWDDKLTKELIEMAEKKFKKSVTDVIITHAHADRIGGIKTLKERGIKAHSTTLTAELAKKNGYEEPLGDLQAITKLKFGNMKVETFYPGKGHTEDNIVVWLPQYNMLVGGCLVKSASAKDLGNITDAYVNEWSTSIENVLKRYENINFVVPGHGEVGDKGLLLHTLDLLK

Beta-lactamase = Beta-lactamase (Pseudomonas aeruginosa, UniProt Q79MP6)
Sequence of Beta-lactamase (Q79MP6 whole entry): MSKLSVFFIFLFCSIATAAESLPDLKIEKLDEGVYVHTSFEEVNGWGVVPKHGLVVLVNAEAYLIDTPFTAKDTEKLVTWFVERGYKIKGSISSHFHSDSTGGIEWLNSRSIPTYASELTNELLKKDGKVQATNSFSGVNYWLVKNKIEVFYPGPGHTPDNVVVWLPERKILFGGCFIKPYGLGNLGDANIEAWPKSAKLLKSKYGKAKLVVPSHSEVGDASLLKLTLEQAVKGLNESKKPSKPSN

Beta-lactamase II [2] = biological target: T1, Beta-lactamase II; remark: listed apart in the source

Row | Structure (SMILES) | IC50 (Beta-lactamase II [1]) [µM] | Ki (Beta-lactamase II [1]) [µM] | IC50 (Beta-lactamase) [µM] | IC50 (Beta-lactamase II [2]) [µM]
1 | C[C@H](CS)C(=O)N1CCC[C@H]1C(=O)O [CAPTOPRIL] | 25.8 | 17.9 | – | –
2 | O=C(O)c1csc(-c2ccccc2)n1 | > 200 | – | > 200 | –
3 | O=C(O)[C@@H]1CSC(c2ccccc2)N1 (stereo partly drawn) | > 200 | – | > 200 | –
4 | O=C(O)[C@@H]1CSC(Cc2ccccc2)=N1 | > 200 | – | > 200 | –
5 | O=C(O)[C@@H]1CSC(c2ccccc2O)=N1 | > 200 | – | > 200 | –
6 | Nc1cccc(C2=N[C@H](C(=O)O)CS2)c1 | 4.9 | 5.1 | 77 | –
7 | CC(C)(C)OC(=O)Nc1cccc(C2=N[C@H](C(=O)O)CS2)c1 | 74.1 | – | > 200 | –
8 | O=C(NCC1=N[C@H](C(=O)O)CS1)OCc1ccccc1 | > 200 | – | > 200 | –
9 | O=C(Cc1ccccc1)NCC1=N[C@H](C(=O)O)CS1 | > 200 | – | > 200 | –
10 | O=C(O)[C@@H]1CSC(c2ccc(Br)cc2)=N1 | > 200 | – | > 200 | –
11 | CC(=O)Nc1cccc(C2=N[C@H](C(=O)O)CS2)c1 | > 200 | – | > 200 | –
12 | O=C(O)[C@@H]1CSC(c2ccc(Cl)cc2)=N1 | > 200 | – | > 200 | –
13 | COc1cccc(CC(=O)NCC2=N[C@H](C(=O)O)CS2)c1 | > 200 | – | > 200 | –
14 | O=C(O)c1csc(Cc2ccccc2)n1 | > 200 | – | – | –
15 | O=C(O)CN(CCN(CC(=O)O)CC(=O)O)CC(=O)O [EDETIC ACID] | – | – | – | 1060
16 | O=C(O)[C@@H]1CSC(Cc2ccccc2)N1 (stereo partly drawn) | > 200 | – | > 200 | –
17 | CC(C)(C)OC(=O)NCC1=N[C@H](C(=O)O)CS1 | > 200 | – | > 200 | –
